Assay results from the CheMixHub ionic liquid set.

Assay: xn = mol fraction of the nth substance listed
Conditions: 100 kPa

CCCCCCCCCCCCCCCC[n+]1ccccc1.[Cl-] + OCC(O)CO + O
electrical conductivity [S/m]
Conditions | 293.15 K | 298.15 K | 303.15 K | 308.15 K
x1 = 3.75e-06, x2 = 0.01019 | 0.0022 | 0.0024 | 0.0025 | 0.0029
x1 = 3.92e-06, x2 = 0.02128 | 0.0022 | 0.0023 | 0.0024 | 0.0032
x1 = 4.1e-06, x2 = 0.03338 | 0.0019 | 0.0022 | 0.0026 | 0.0032
x1 = 4.29e-06, x2 = 0.04664 | 0.0019 | 0.0022 | – | 0.0032
x1 = 7.51e-06, x2 = 0.01019 | 0.004 | 0.0042 | 0.0046 | 0.0052
x1 = 7.84e-06, x2 = 0.02128 | 0.0035 | 0.0039 | 0.0043 | 0.0054
x1 = 8.2e-06, x2 = 0.03338 | 0.0031 | 0.0037 | 0.0043 | 0.0049
x1 = 8.59e-06, x2 = 0.04664 | 0.003 | 0.0036 | 0.0044 | 0.0048
x1 = 1.126e-05, x2 = 0.01019 | 0.0058 | – | 0.0065 | 0.0076
x1 = 1.176e-05, x2 = 0.02128 | – | 0.0054 | 0.0064 | 0.0077
x1 = 1.23e-05, x2 = 0.03338 | 0.0043 | 0.0052 | 0.0059 | 0.0068
x1 = 1.288e-05, x2 = 0.04664 | 0.004 | 0.005 | 0.0058 | 0.0065
x1 = 1.502e-05, x2 = 0.01019 | 0.0076 | 0.0076 | 0.0085 | –
x1 = 1.568e-05, x2 = 0.02128 | 0.0063 | – | 0.0084 | –
x1 = 1.639e-05, x2 = 0.03338 | 0.0056 | 0.0066 | 0.0077 | 0.0088
x1 = 1.718e-05, x2 = 0.04664 | 0.0052 | 0.0063 | 0.0072 | 0.0083
x1 = 1.877e-05, x2 = 0.01019 | 0.0087 | 0.0092 | – | –
x1 = 1.96e-05, x2 = 0.02128 | 0.0076 | 0.0087 | – | –
x1 = 2.049e-05, x2 = 0.03338 | 0.0069 | 0.0081 | 0.0093 | –
x1 = 2.147e-05, x2 = 0.04664 | 0.0063 | 0.0078 | 0.0086 | –
x1 = 2.253e-05, x2 = 0.01019 | 0.0094 | – | – | –
x1 = 2.351e-05, x2 = 0.02128 | 0.0083 | 0.0096 | – | –
x1 = 2.459e-05, x2 = 0.03338 | 0.0079 | 0.0089 | – | –
x1 = 2.577e-05, x2 = 0.04664 | 0.0073 | 0.0089 | 0.0097 | –
x1 = 2.743e-05, x2 = 0.02128 | 0.0089 | – | – | –
x1 = 2.869e-05, x2 = 0.03338 | 0.0086 | 0.0095 | – | –
x1 = 3.006e-05, x2 = 0.04664 | 0.0079 | 0.0095 | – | –
x1 = 3.135e-05, x2 = 0.02128 | 0.0095 | – | – | –
x1 = 3.279e-05, x2 = 0.03338 | 0.0092 | – | – | –
x1 = 3.436e-05, x2 = 0.04664 | 0.0084 | – | – | –
x1 = 3.688e-05, x2 = 0.03338 | 0.0098 | – | – | –
x1 = 3.865e-05, x2 = 0.04664 | 0.0089 | – | – | –
x1 = 4.295e-05, x2 = 0.04664 | 0.0094 | – | – | –
